Twelve compounds from the supplement of paper PMC5908809 can be followed below.

Each structure is given as a SMILES string.

Holding throughout (experiment): relative IC50 (inflection point of fitted viability curve, relative to fitted max inhibition); higher = less sensitive
Common to all, as to settings: 72 h

For one assay, the system named is DERL-7 (IL-2 2.5 ng/mL). Here is the method:
(§1)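 Drug sensitivity and resistance testing: 5 concentrations over a 10,000-fold range, 72 h at 37 °C, viability by CellTiter-Glo normalised to DMSO and benzethonium chloride controls. IC50 is the inflection point of a logistic fit (min fixed at 0, max fitted), so it is relative to the fitted maximal inhibition. Kept only where fitted max inhibition is at least 50%.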

The subject of another assay is IMC-1 (IL-2 20 ng/mL). As for the experimental part: as §1
In a further assay the test system is KAI3 (IL-2 2.5 ng/mL). Here is the method:
as §1

In another assay the test system is KHYG-1 (IL-2 2.5 ng/mL). As for the experimental part: as §1
The next assay has as its system NK-92 (IL-2 2.5 ng/mL). Here is the method:
as §1

The subject of the next assay is NK-YS (IL-2 2.5 ng/mL). As for the experimental part: as §1
In another assay the test system is NKL (IL-2 2.5 ng/mL). Here is the method: as §1
In assay [1] the test system is normal primary NK cells, pool 1 (3 donors) (IL-2 2.5 ng/mL). As for the experimental part: as §1
Assay [2] deals with normal primary NK cells, pool 1 (3 donors), resting (IL-2 0 ng/mL). Here is the method:
as §1

In assay [3] the test system is normal primary NK cells, pool 2 (3 donors) (IL-2 2.5 ng/mL). As for the experimental part:
as §1

Assay [4] has as its system normal primary NK cells, pool 3 (3 donors) (IL-2 2.5 ng/mL). Here is the method: as §1
The subject of the next assay is SNK-6 (IL-2 2.5 ng/mL). Here is the method: as §1
The next assay concerns YT (IL-2 2.5 ng/mL). Here is the method:
as §1

With `CC(=O)c1c(C)c2cnc(Nc3ccc(N4CCNCC4)cn3)nc2n(C2CCCC2)c1=O` [Palbociclib], the relative IC50 (usually the concentration halfway between the upper and lower plateau of the fitted curve) in the assay with DERL-7 (IL-2 2.5 ng/mL) was 1380 nM; in the assay with IMC-1 (IL-2 20 ng/mL), 2620 nM; in the assay on KAI3 (IL-2 2.5 ng/mL) it was 3090 nM; in the assay on KHYG-1 (IL-2 2.5 ng/mL), 279 nM; in the assay on NK-92 (IL-2 2.5 ng/mL), 1780 nM; in the assay with NK-YS (IL-2 2.5 ng/mL), 413 nM. Further, the “relative IC50” value in the assay on NKL (IL-2 2.5 ng/mL) was determined as 1550 nM; in assay [1], 3580 nM; in assay [2] it was 4040 nM; in assay [3], 2850 nM; in assay [4], 3430 nM.

Regarding `C=CC[C@@H]1/C=C(\C)C[C@H](C)C[C@H](OC)[C@H]2O[C@@](O)(C(=O)C(=O)N3CCCC[C@H]3C(=O)O[C@H](/C(C)=C/[C@@H]3CC[C@@H](O)[C@H](OC)C3)[C@H](C)[C@@H](O)CC1=O)[C@H](C)C[C@@H]2OC` [Tacrolimus], the “relative IC50” value in assay [2] was found to be 1620 nM.

`C[C@@H]1C=C2C(=O)O[C@@H]3CC[C@H](C1)[C@]23O` [Galiellalactone]: the “relative IC50” value is 3110 nM in the assay with DERL-7 (IL-2 2.5 ng/mL); 3340 nM in the assay on KAI3 (IL-2 2.5 ng/mL); 5240 nM in the assay with KHYG-1 (IL-2 2.5 ng/mL); 5040 nM with NK-92 (IL-2 2.5 ng/mL); 3660 nM in the assay with NK-YS (IL-2 2.5 ng/mL); 3970 nM with SNK-6 (IL-2 2.5 ng/mL). Also, the “relative IC50” value was 8550 nM in the assay on YT (IL-2 2.5 ng/mL); 4800 nM in assay [1]; 3720 nM in assay [2]; 5560 nM in assay [3]; 7360 nM in assay [4].

As for `CCn1c(-c2nonc2N)nc2cnc(Oc3cccc(NC(=O)c4ccc(OCCN5CCOCC5)cc4)c3)cc21`, the “relative IC50” value amounted to 63.4 nM in the assay on DERL-7 (IL-2 2.5 ng/mL); 1280 nM in the assay with KAI3 (IL-2 2.5 ng/mL); 1120 nM with KHYG-1 (IL-2 2.5 ng/mL); 287 nM in the assay with NK-92 (IL-2 2.5 ng/mL); 1070 nM with NKL (IL-2 2.5 ng/mL); 50.4 nM in the assay with SNK-6 (IL-2 2.5 ng/mL). Besides, the “relative IC50” value in assay [1] was found to be 1540 nM; in assay [2] it was 1660 nM; in [3] it was 1970 nM; in [4] it was 1610 nM.

On to `COc1cccc2c1c(O)c(C(=O)N(C)c1ccc(C(F)(F)F)cc1)c(=O)n2C` [Tasquinimod], for which the “relative IC50” value (with DERL-7 (IL-2 2.5 ng/mL); in [3]; in assay [4]) was above 10000 nM throughout.

With `COc1cc(Nc2ncc3c(n2)-c2ccc(Cl)cc2C(c2c(F)cccc2OC)=NC3)ccc1C(=O)O` [Alisertib], the “relative IC50” value in the assay with DERL-7 (IL-2 2.5 ng/mL) was 28.2 nM; in the assay on IMC-1 (IL-2 20 ng/mL), 116 nM; in the assay with KAI3 (IL-2 2.5 ng/mL) it was 116 nM; in the assay with KHYG-1 (IL-2 2.5 ng/mL) it was 50.5 nM; in the assay on NK-92 (IL-2 2.5 ng/mL), 41.3 nM; with NK-YS (IL-2 2.5 ng/mL) it was 22 nM. Besides, the entries for the “relative IC50” value in the assay with NKL (IL-2 2.5 ng/mL), in the assay with SNK-6 (IL-2 2.5 ng/mL) and with YT (IL-2 2.5 ng/mL) were 52.5 nM, 39.5 nM and 91.9 nM, respectively.

In the case of `Cc1cnc(NC(=O)Nc2cc(Br)c(C)cc2OC[C@@H]2CNCCO2)cn1` [Rabusertib], the “relative IC50” value in the assay with KAI3 (IL-2 2.5 ng/mL) came to 203 nM; in the assay with KHYG-1 (IL-2 2.5 ng/mL), 197 nM; in the assay with NK-92 (IL-2 2.5 ng/mL), 172 nM; with NK-YS (IL-2 2.5 ng/mL), 279 nM; in the assay on NKL (IL-2 2.5 ng/mL), 192 nM; in the assay with SNK-6 (IL-2 2.5 ng/mL), 179 nM. In assay [1], the “relative IC50” value is above 1000 nM.

In the case of `CC1(C)CCC(CN2CCN(c3ccc(C(=O)NS(=O)(=O)c4ccc(NCC5CCOCC5)c([N+](=O)[O-])c4)c(Oc4cnc5[nH]ccc5c4)c3)CC2)=C(c2ccc(Cl)cc2)C1` [Venetoclax], the “relative IC50” value in the assay on DERL-7 (IL-2 2.5 ng/mL) turned out to be 211 nM; in the assay on KAI3 (IL-2 2.5 ng/mL), 7.28 nM; in the assay with KHYG-1 (IL-2 2.5 ng/mL), 1280 nM; in the assay with NK-92 (IL-2 2.5 ng/mL) it was 1730 nM; in the assay on NK-YS (IL-2 2.5 ng/mL) it was 1450 nM; in the assay with NKL (IL-2 2.5 ng/mL), 115 nM. For the same compound, the “relative IC50” value in the assay with SNK-6 (IL-2 2.5 ng/mL) is 34.8 nM; with YT (IL-2 2.5 ng/mL) it was 415 nM; in assay [1], 859 nM; in assay [2], 8.76 nM.

`Cc1sc2c(c1C)C(c1ccc(Cl)cc1)=N[C@@H](CC(=O)Nc1ccc(O)cc1)c1nnc(C)n1-2` [OTX015]: the “relative IC50” value turned out to be 48.1 nM in the assay on DERL-7 (IL-2 2.5 ng/mL); 630 nM in the assay with IMC-1 (IL-2 20 ng/mL); 437 nM in the assay on KAI3 (IL-2 2.5 ng/mL); 145 nM in the assay on KHYG-1 (IL-2 2.5 ng/mL); 229 nM in the assay on NK-YS (IL-2 2.5 ng/mL); 75.2 nM with NKL (IL-2 2.5 ng/mL). Besides, the “relative IC50” value in the assay with SNK-6 (IL-2 2.5 ng/mL) is 43 nM; with YT (IL-2 2.5 ng/mL), 241 nM; in assay [1], 171 nM; in assay [3] it was 393 nM; in assay [4], 804 nM.

For the compound `CC(C)C[C@@H](C(=O)N[C@H](C(=O)OC1CCCC1)c1ccccc1)[C@H](O)C(=O)NO` [Tosedostat], the “relative IC50” value worked out at 23.3 nM in the assay on DERL-7 (IL-2 2.5 ng/mL); 606 nM in the assay with KHYG-1 (IL-2 2.5 ng/mL); 1960 nM in the assay on NKL (IL-2 2.5 ng/mL); 1520 nM with YT (IL-2 2.5 ng/mL); 942 nM in assay [1]; 274 nM in assay [2]. Besides, the “relative IC50” value in assay [3] amounted to 903 nM.

Regarding `CNC(=O)c1cc(Oc2ccc(NC(=O)Nc3cc(C(C)(C)C)nn3-c3ccc4ncccc4c3)c(F)c2)ccn1` [Rebastinib], the “relative IC50” value in assay [1], in assay [3] and in assay [4] was above 1000 nM in each case.

`COc1cc(O)c2c(c1)/C=C/C[C@H](O)[C@H](O)C(=O)/C=C\C[C@H](C)OC2=O` [(5Z)-7-Oxozeaenol]: the “relative IC50” value came to 572 nM with DERL-7 (IL-2 2.5 ng/mL); 797 nM in the assay with KAI3 (IL-2 2.5 ng/mL); 480 nM in the assay on KHYG-1 (IL-2 2.5 ng/mL); 1510 nM in the assay on NK-92 (IL-2 2.5 ng/mL); 1140 nM in the assay with NK-YS (IL-2 2.5 ng/mL); 156 nM in the assay with NKL (IL-2 2.5 ng/mL). In addition, the “relative IC50” value in the assay with SNK-6 (IL-2 2.5 ng/mL) amounted to 1560 nM; with YT (IL-2 2.5 ng/mL), 1060 nM; in assay [1], 782 nM; in assay [2], 688 nM; in [3], 1600 nM; in assay [4], 2050 nM.
